# In patent US8822500B2, “Tyrosine kinase inhibitors” (Chembridge Corporation, priority 2008, dated 2014):
# Several values for one entry are separate records, joined by “and”; a condition that tells them apart may be missing. Equal entries are not always repeated. Where two headings read alike, the source gives them in different places.
# Experiments:
# Caco-2 cells = assay: Caco-2 cell permeation study; format: in vitro ADME; settings: 10 μM; for Papp (10−6 cm/sec) A to B: apical pH 6.5, 2 h; for Papp (10−6 cm/sec) B to A: basolateral pH 7.4, 2 h;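 on all read-outs here: Caco-2 monolayers grown for 21–28 days with integrity confirmed by TEER, apical buffer HBSS with MES, basolateral buffer HBSS with HEPES, compound levels quantified by LC/MS/MS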
# K299 lymphoma cells = assay: Cellular assay, 3 day cell viability (WST-1); format: cell-based; settings: 72 h, 3 days, read-out: GTx-K299 IC50
# U937 lymphoma cells = assay: Cellular assay, 3 day cell viability (WST-1); format: cell-based; settings: Homo sapiens, U-937, 72 h; 3 days, WST-1; read-out: GTx-U937 IC50
# SUDHL-1 lymphoma cells = assay: Cellular assay, 3 day cell viability (WST-1); format: cell-based; settings: Homo sapiens, SU-DHL-1, 72 h; 3 days, WST-1; read-out: GTx-SUDHL-1 IC50
# ALK = ALK (Homo sapiens (Human), UniProt Q9UM73); assay: In vitro kinase activity assay (LANCE TR-FRET); format: biochemical;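 further: kinase reactions with ATP and a poly-GT peptide substrate, phosphorylated product read by time-resolved FRET, 11-point curve from 10^−11 to 10^−5 M, DMSO as negative control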
# TrkA = TrkA (Homo sapiens (Human), UniProt P04629); assay: In vitro kinase activity assay (LANCE TR-FRET); format: biochemical;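 further: kinase reaction with poly-GT peptide substrate and ATP, phosphorylated product quantified by time-resolved FRET, eleven-point dose curves from 10^−11 to 10^−5 M in triplicate, DMSO as negative control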
# [1] = Metabolic stability, Phase I microsome reactions; format: in vitro ADME, mouse; settings: mouse, liver microsomes, pH 7.4, Phase I only, 1.0 mg/ml microsomes
# [2] = Caco-2 cell permeation study; format: in vitro ADME; settings: human; for Papp A→B at 2 h, 10 μM: Caco-2, pH 6.5, 10 μM, apical pH 6.5, 2 h; for efflux ratio at 2 h, 10 μM: Caco-2, Caco-2; for Papp B→A at 2 h, 10 μM: Caco-2, pH 7.4, 10 μM, basolateral pH 7.4, 2 h;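 on all read-outs here: Caco-2 monolayers grown for 21–28 days with integrity confirmed by TEER, apical buffer HBSS with MES, basolateral buffer HBSS with HEPES, compound levels quantified by LC/MS/MS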
# in vitro [3] = settings: human, microsomes; for microsomal CLint at 0.5 μM: pH 7.4, Human LM-P1 CL (ul/min/mg); for half-life at 0.5 μM: pH 7.4, Human LM-P1 Half-life (min)
# in vitro [4] = settings: rat, microsomes; for half-life at 0.5 μM: pH 7.4; for microsomal CLint at 0.5 μM: pH 7.4, Rat LM-P1 CL (ul/min/mg)
# [5] = Rat pharmacokinetics / bioavailability; format: in vivo
# Chain of ALK (Q9UM73 19-1620): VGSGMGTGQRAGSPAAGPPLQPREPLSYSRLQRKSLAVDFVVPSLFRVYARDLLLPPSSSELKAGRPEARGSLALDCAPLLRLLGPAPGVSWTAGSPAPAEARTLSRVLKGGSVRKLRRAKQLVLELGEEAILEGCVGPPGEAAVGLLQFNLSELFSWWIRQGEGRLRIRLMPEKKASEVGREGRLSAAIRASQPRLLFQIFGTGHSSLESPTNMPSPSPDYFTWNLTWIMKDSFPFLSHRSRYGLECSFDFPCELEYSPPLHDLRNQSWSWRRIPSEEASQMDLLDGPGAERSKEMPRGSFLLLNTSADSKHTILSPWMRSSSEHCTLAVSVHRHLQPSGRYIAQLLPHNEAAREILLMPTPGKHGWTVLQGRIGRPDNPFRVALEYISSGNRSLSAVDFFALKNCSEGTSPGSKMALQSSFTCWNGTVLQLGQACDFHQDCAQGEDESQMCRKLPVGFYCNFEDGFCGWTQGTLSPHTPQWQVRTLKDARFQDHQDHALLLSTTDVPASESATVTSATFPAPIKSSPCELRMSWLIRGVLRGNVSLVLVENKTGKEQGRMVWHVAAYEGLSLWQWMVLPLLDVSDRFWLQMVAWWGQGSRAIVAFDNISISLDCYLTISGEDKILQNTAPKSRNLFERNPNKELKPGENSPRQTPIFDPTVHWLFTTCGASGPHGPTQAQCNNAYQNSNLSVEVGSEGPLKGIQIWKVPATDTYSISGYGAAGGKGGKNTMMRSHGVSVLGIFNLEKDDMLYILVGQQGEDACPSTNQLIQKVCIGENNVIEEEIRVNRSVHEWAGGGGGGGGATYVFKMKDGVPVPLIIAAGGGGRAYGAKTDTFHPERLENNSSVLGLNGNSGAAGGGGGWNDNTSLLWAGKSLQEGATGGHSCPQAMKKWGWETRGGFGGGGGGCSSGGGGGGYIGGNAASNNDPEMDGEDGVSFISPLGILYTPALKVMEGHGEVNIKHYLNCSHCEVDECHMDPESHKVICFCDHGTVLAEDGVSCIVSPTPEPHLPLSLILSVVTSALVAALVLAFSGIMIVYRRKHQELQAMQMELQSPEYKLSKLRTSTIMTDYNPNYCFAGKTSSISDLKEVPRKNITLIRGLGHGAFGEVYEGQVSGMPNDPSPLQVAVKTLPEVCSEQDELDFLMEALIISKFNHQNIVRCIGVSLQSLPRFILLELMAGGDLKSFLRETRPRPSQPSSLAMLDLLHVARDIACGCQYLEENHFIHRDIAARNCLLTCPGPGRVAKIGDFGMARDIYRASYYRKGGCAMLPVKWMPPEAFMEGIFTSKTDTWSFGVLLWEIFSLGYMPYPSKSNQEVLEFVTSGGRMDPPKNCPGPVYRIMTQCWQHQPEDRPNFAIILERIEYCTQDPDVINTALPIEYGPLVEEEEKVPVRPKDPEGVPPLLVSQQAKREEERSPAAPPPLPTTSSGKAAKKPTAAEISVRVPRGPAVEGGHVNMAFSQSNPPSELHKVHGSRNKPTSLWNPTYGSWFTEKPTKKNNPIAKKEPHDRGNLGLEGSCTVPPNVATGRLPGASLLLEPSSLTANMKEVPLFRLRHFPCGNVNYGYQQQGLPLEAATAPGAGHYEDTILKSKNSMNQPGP
# Chain of TrkA (P04629 33-796): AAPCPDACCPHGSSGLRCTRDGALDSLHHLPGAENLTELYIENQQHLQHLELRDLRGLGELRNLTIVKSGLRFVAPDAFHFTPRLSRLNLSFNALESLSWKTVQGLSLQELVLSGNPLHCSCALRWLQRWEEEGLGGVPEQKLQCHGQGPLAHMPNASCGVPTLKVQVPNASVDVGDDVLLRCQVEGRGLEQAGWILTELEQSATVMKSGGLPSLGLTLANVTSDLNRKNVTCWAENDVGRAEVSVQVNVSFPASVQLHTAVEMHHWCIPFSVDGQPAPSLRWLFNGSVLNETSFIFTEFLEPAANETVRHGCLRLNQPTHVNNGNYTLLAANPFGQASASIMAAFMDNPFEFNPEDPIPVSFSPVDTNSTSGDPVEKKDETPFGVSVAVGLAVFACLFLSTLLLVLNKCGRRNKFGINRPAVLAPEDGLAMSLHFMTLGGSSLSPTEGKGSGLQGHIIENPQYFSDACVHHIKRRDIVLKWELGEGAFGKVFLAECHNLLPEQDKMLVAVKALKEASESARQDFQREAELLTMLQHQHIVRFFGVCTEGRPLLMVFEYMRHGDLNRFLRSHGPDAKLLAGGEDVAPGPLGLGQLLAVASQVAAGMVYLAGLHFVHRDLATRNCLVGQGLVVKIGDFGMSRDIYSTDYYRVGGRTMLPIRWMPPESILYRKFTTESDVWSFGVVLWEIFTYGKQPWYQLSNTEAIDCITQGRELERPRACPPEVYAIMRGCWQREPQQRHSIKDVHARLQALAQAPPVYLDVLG
IC50 (K299 lymphoma cells) [nM],IC50 (U937 lymphoma cells) [nM],IC50 (SUDHL-1 lymphoma cells) [nM],IC50 (ALK; read-out: ALK (nM) IC50),IC50 (TrkA; read-out: TrkA (nM) IC50),SMILES,further results
,,,,,"CC(C)NCC(O)COc1cccc2ccccc12 (centres unmarked) [Propranolol, reference compound]",Pos Ctrl Recovery (Caco-2 cells; positive control): 63% and 58% and 26%
1830,> 3000,2770,,,"CC(Cc1cc(F)ccc1F)Nc1cc[nH]c(=O)c1-c1nc2cc3c(cc2[nH]1)CN(C(C)C)C3=O (centres unmarked) [Compound 37, 2-(4-((1-(2,5-Difluorophenyl)propan-2-yl)amino)-2-oxo-1,2-dihydropyridin-3-yl)-6-isopropyl-6,7-dihydroimidazo[4,5-f]isoindol-5(1H)-one]",
1830,> 3000,2770,,,"CC(Cc1cc(F)ccc1F)Nc1cc[nH]c(=O)c1-c1nc2cc3c(cc2[nH]1)C(=O)N(C(C)C)C3=O (centres unmarked) [Compound 36, 2-(4-((1-(2,5-Difluorophenyl)propan-2-yl)amino)-2-oxo-1,2-dihydropyridin-3-yl)-6-isopropylimidazo[4,5-f]isoindole-5,7(1H,6H)-dione]",
784,> 3000,957,> 300 nM,30 to 100 nM,"C[C@@H](Cc1cc(F)ccc1F)Nc1cc[nH]c(=O)c1-c1nc2cc3c(cc2[nH]1)C(=O)N(C)C3=O [Compound 32, 2-(4-(1-(2,5-Difluorophenyl)propan-2-ylamino)-2-oxo-1,2-dihydropyridin-3-yl)-6-methylimidazo[4,5-f]isoindole-5,7(1H,6H)-dione]","IC50 (ALK; read-out: GTx-ALK IC50): > 300 nM; IC50 (TrkA; read-out: GTx-TrKA IC50): > 30 nM; microsomal CLint at 0.5 μM ([1]; read-out: Mouse LM-P1 CL): < 5.8 µL/min/mg; half-life at 0.5 μM ([1]; read-out: Mouse LM-P1 Half-life): > 120 min; Papp A→B at 2 h, 10 μM [2]: < 0.2 ×10⁻⁶ cm/s; Papp (10−6 cm/sec) A to B (Caco-2 cells): >0.2 10−6 cm/sec; Papp (10−6 cm/sec) B to A (Caco-2 cells): 0.1 10−6 cm/sec; microsomal CLint at 0.5 μM (in vitro [3]): 7.81 µL/min/mg; half-life at 0.5 μM (in vitro [3]): 88.7 min; half-life at 0.5 μM (in vitro [4]): > 120 min; microsomal CLint at 0.5 μM (in vitro [4]): < 5.8 µL/min/mg"
,,,38.9 nM,17.5 nM,"CC(Cc1cc(F)ccc1F)Nc1cc[nH]c(=O)c1-c1nc2cc3c(cc2[nH]1)C(=O)N(CCN(C)C)C3=O (centres unmarked) [Compound 17, 2-(4-(1-(2,5-Difluorophenyl)propan-2-ylamino)-2-oxo-1,2-dihydropyridin-3-yl)-6-(2-(dimethylamino)ethyl)imidazo[4,5-f]isoindole-5,7(1H,6H)-dione]",microsomal CLint at 0.5 μM (in vitro [3]): 8.77 µL/min/mg; half-life at 0.5 μM (in vitro [3]): 79.1 min; half-life at 0.5 μM (in vitro [4]): 25.6 min; microsomal CLint at 0.5 μM (in vitro [4]): 27.1 µL/min/mg
> 3000,> 3000,2800,,,"Cc1ccc(F)cc1CC(C)Nc1cc[nH]c(=O)c1-c1nc2cc3c(cc2[nH]1)C(=O)N(C(C)C)C3=O (centres unmarked) [Compound 38, 2-(4-((1-(5-Fluoro-2-methylphenyl)propan-2-yl)amino)-2-oxo-1,2-dihydropyridin-3-yl)-6-isopropylimidazo[4,5-f]isoindole-5,7(1H,6H)-dione]",
,,,231 nM,165 nM,"Cc1c2c(cc3[nH]c(-c4c(NC(C)Cc5c(F)c(F)cc(F)c5F)cc[nH]c4=O)nc13)C(=O)N(C1CCN(C)CC1)C2=O (centres unmarked) [Compound 29, 4-Methyl-6-(1-methylpiperidin-4-yl)-2-(2-oxo-4-(1-(2,3,5,6-tetrafluorophenyl)propan-2-ylamino)-1,2-dihydropyridin-3-yl)imidazo[4,5-f]isoindole-5,7(1H,6H)-dione]",
> 10000,> 10000,> 10000,> 10000 nM,> 10000 nM,"C[C@@H](Cc1cc(F)cc(F)c1F)Nc1cc[nH]c(=O)c1-c1nc2cc3c(cc2[nH]1)C(=O)N([C@@H](C)Cc1cc(F)cc(F)c1F)C3=O (stereo in doubt) [Compound 40, 2-(2-oxo-4-(1-(2,3,5-trifluorophenyl)propan-2-ylamino)-1,2-dihydropyridin-3-yl)-6-(1-(2,3,5-trifluorophenyl)propan-2-yl)imidazo[4,5-f]isoindole-5,7(1H,6H)-dione]",
,,,23.7 nM,10.4 nM,"Cc1c2c(cc3[nH]c(-c4c(NC(C)Cc5c(F)c(F)cc(F)c5F)cc[nH]c4=O)nc13)CN(C1CCN(C)CC1)C2=O (centres unmarked) [Compound 24, 4-Methyl-6-(1-methylpiperidin-4-yl)-2-(2-oxo-4-(1-(2,3,5,6-tetrafluorophenyl)propan-2-ylamino)-1,2-dihydropyridin-3-yl)-6,7-dihydroimidazo[4,5-f]isoindol-5(1H)-one]",
> 3000,> 3000,2800,,,"Cc1ccc(F)cc1CC(C)Nc1cc[nH]c(=O)c1-c1nc2cc3c(cc2[nH]1)CN(C(C)C)C3=O (centres unmarked) [Compound 39, 2-(4-((1-(5-Fluoro-2-methylphenyl)propan-2-yl)amino)-2-oxo-1,2-dihydropyridin-3-yl)-6-isopropyl-6,7-dihydroimidazo[4,5-f]isoindol-5(1H)-one]",
> 10000,> 10000,> 10000,> 10000 nM,9490 nM,"CC(Cc1c(F)c(F)cc(F)c1F)Nc1cc[nH]c(=O)c1-c1nc2cc3c(cc2n1C)CN(C)C3=O (stereo not drawn) [Compound 43, Trans-1,6-Dimethyl-2(2-oxo-4-(1-(2,3,5,6-tetrafluorophenyl)propan-2-ylamino)-1,2-dihydropyridin-3-yl)-6,7-dihydroimidazo[4,5-f]isoindol-5(1H)-one]",IC50 (ALK; read-out: GTx-ALK IC50): > 10000 nM; IC50 (TrkA; read-out: GTx-TrKA IC50): 9500 nM
> 10000,> 10000,> 10000,17.5 nM,7.27 nM,"CC(Cc1c(F)c(F)cc(F)c1F)Nc1cc[nH]c(=O)c1-c1nc2cc3c(cc2[nH]1)C(=O)N(C)C3 (centres unmarked) [Compound 42, 6-Methyl-2-(2-oxo-4-(1-(2,3,5,6-tetrafluorophenyl)propan-2-ylamino)-1,2-dihydropyridin-3-yl)-6,7-dihydroimidazo[4,5-f]isoindole-5(1H)-one]","IC50 (ALK; read-out: GTx-ALK IC50): 18 nM; IC50 (TrkA; read-out: GTx-TrKA IC50): 7 nM; efflux ratio at 2 h, 10 μM [2]: 1; Papp A→B at 2 h, 10 μM [2]: 0.24 ×10⁻⁶ cm/s; Papp B→A at 2 h, 10 μM [2]: 0.24 ×10⁻⁶ cm/s; IV_AUC0-1440 Rat 10 mpk ([5]; 10 mg/kg I.V.): 232 µg·min/mL; PO_AUC0-1440 Rat 10 mpk ([5]; 10 mg/kg P.O.): 5.48 µg·min/mL; bioavailability ([5]; male, Sprague-Dawley, plasma, po, 10 mg/kg P.O., read-out: Rat F %): 2.36%"
,,,,,Cc1ccc(F)cc1CC(C)Nc1cc[nH]c(=O)c1-c1nc2cc3c(cc2[nH]1)CNC3=O (centres unmarked) [Compound 52],"Papp A→B at 2 h, 10 μM [2]: 9.3 ×10⁻⁶ cm/s; Papp B→A at 2 h, 10 μM [2]: 7.4 ×10⁻⁶ cm/s; Papp (10−6 cm/sec) A to B (Caco-2 cells): 5.0 10−6 cm/sec and 8.9 10−6 cm/sec; Papp (10−6 cm/sec) B to A (Caco-2 cells): 10.2 10−6 cm/sec and 5.2 10−6 cm/sec; microsomal CLint at 0.5 μM (in vitro [3]): 134 µL/min/mg; half-life at 0.5 μM (in vitro [3]): 5.17 min; half-life at 0.5 μM (in vitro [4]): 2.51 min; microsomal CLint at 0.5 μM (in vitro [4]): 276 µL/min/mg"
> 10000,> 10000,> 10000,13.8 nM and 4.71 nM,6.97 nM and 3.7 nM,"CC(Cc1cc(F)ccc1F)Nc1cc[nH]c(=O)c1-c1nc2cc3c(cc2[nH]1)C(=O)N(CC(O)CO)C3=O [Compound 34, 2-(4-(1-(2,5-Difluorophenyl)propan-2-ylamino)-2-oxo-1,2-dihydropyridin-3-yl)-6-(R)-2,3-dihydroxypropyl)imidazo[4,5-f]isoindole-5,7(1H,6H)-dione]","IC50 (ALK; read-out: GTx-ALK IC50): 14 nM; IC50 (TrkA; read-out: GTx-TrKA IC50): 7 nM; efflux ratio at 2 h, 10 μM [2]: > 5.9; Papp B→A at 2 h, 10 μM [2]: 1.17 ×10⁻⁶ cm/s; Papp (10−6 cm/sec) B to A (Caco-2 cells): 1.17 10−6 cm/sec; microsomal CLint at 0.5 μM (in vitro [3]): 9.16 µL/min/mg; half-life at 0.5 μM (in vitro [3]): 75.7 min; half-life at 0.5 μM (in vitro [4]): 33.6 min; microsomal CLint at 0.5 μM (in vitro [4]): 20.6 µL/min/mg"
